In one test the target is T1, Human CARM1 (PRMT4) (Homo sapiens, UniProt Q86X55).
T1 construct: Flag-CARM1-His; made in house; host or cells: HEK 293F cells (BacMam baculovirus, pFastBacMam)
T1 sequence (Q86X55 2-585 isoform Q86X55-1): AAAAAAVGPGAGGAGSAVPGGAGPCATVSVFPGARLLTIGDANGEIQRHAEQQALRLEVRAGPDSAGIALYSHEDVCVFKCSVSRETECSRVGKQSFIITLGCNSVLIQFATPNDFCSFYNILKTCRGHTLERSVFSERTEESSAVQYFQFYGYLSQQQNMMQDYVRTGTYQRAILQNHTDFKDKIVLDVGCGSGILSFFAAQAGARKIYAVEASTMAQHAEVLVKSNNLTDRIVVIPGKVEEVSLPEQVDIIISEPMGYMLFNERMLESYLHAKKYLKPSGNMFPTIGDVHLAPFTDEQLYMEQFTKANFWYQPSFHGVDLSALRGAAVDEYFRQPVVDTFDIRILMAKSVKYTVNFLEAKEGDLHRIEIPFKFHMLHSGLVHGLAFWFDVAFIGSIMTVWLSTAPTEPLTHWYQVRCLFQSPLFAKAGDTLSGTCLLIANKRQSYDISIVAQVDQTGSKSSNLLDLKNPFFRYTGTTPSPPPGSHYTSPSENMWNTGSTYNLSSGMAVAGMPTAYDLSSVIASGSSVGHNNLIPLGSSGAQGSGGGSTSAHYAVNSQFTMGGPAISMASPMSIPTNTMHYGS
Nature of the test: CARM1 biochemical assay (3H-SAM Flashplate, peptide substrate). Conditions: read-out: CARM1_ IC50. Put shortly: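 FLAG/His-tagged human CARM1 (isoform 1, Δ539-561, baculovirus-expressed), 0.25 nM, preincubated 30 min at room temperature with compound (2% DMSO) in 20 mM Bicine pH 7.6, then reacted with 30 nM 3H-SAM and 250 nM biotinylated H3 16-30 peptide (R26 monomethyl). Stopped with 300 uM cold SAM; labelled peptide captured on streptavidin Flashplate; % inhibition versus DMSO and 1 mM SAH controls fitted to a 4- or 3-parameter curve.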

Test [1] relates to asymmetric di-methyl PABP1 in RKO cells. Nature of the test: In Cell Western (ICW) for asymmetric di-methyl PABP1 and DNA content in RKO cells. It is filed as cell-based. Conditions: Homo sapiens, RKO, In Cell Western. The text has this:
RKO adherent cells were purchased from ATCC (American Type Culture Collection), Manassas, Va., USA. DMEM/Glutamax medium, penicillin-streptomycin, heat inactivated fetal bovine serum, 0.05% trypsin and D-PBS were purchased from Life Technologies, Grand Island, N.Y., USA. Odyssey blocking buffer, 800CW goat anti-rabbit IgG (H+L) antibody, and Licor Odyssey infrared scanner were purchased from Licor Biosciences, Lincoln, Nebr., USA. Mono-methyl arginine antibody was purchased from Cell Signaling Technology, Danvers, Mass., USA. Methanol was purchased from VWR, Franklin, Mass., USA. 10% Tween 20 was purchased from KPL, Inc., Gaithersburg, Md., USA. […] was purchased from Biostatus Limited, Leicestershire, UK. RKO adherent cells were maintained in growth medium (DMEM/Glutamax medium supplemented with 10% v/v heat inactivated fetal bovine serum and 100 units/mL penicillin-streptomycin) and cultured at 37° C. under 5% CO2. Cell Treatment, in Cell Western (ICW) for Detection of Asymmetric Di-Methyl PABP1 and DNA Content. RKO cells were seeded in assay medium at a concentration of 30,000 cells per mL to a poly-D-lysine coated 384 well culture plate (BD Biosciences 356697) with 50 μL per well. Compound (100 nL) from a 96-well source plate was added directly to 384 well cell plate. Plates were incubated at 37° C., 5% CO2 for 48 hours. After two days of incubation, plates were brought to room temperature outside of the incubator for ten minutes and blotted on paper towels to remove cell media. Cells were fixed for 20 minutes at room temperature by adding 50 μl of 8% PFA followed by aspiration of supernatant with the Biotek EL406 plate washer. Cells were then permeabilized by addition of 50 μL of ice cold 100% methanol directly to each well and incubated for 30 min at room temperature. After 30 min, plates were transferred to a Biotek EL406 plate washer and washed 2 times with 100 μL per well of wash buffer (1×PBS). Next 60 μL per well of Odyssey blocking buffer (Odyssey Buffer with 0.1% Tween 20 (v/v)) were added to each plate and incubated 1 hour at room temperature. Blocking buffer was removed and 20 μL per well of primary antibody was added (asymmetric-methyl PABP1) diluted 1:400 in Odyssey buffer with 0.1% Tween 20 (v/v)) and plates were incubated overnight (16 hours) at 4° C. Plates were washed 5 times with 100 μL per well of wash buffer. Next 20 μL per well of secondary antibody was added (1:800 800CW goat anti-rabbit IgG (H+L) antibody, 1:2000 DRAQS in Odyssey buffer with 0.1% Tween 20 (v/v)) and incubated for 1 hour at room temperature. The plates were washed 5 times with 100 μL per well wash buffer then 2 times with 100 μL per well of water. Plates were allowed to dry at room temperature then imaged on the Licor Odyssey machine which measures integrated intensity at 700 nm and 800 nm wavelengths. Both 700 and 800 channels were scanned. Calculations: First, the ratio for each well was determined by: Each plate included fourteen control wells of DMSO only treatment (minimum inhibition) as well as fourteen control wells for maximum inhibition treated with 20 μM of a reference compound. The average of the ratio values for each control type was calculated and used to determine the percent activation for each test well in the plate. Reference compound was serially diluted three-fold in DMSO for a total of nine test concentrations, beginning at 20 μM. Percent inhibition was determined and IC50 curves were generated using triplicate wells per concentration of compound.

A word on the IC50: it is the concentration that gives 50% inhibition. For `CNCCN(C)Cc1cccc(-c2cc(CO)c3cnn(C(C)C)c3n2)c1` [Compound 290], the IC50 at Human CARM1 (PRMT4) was determined as 167 nM; in test [1], 20000 nM.
Regarding `CC(C)n1ncc2c(C(=O)N3CCC(F)(F)C3)cc(-c3cccc(CN(C)CCN)c3)nc21` [Compound 261], the IC50 stood at 69.4 nM at Human CARM1 (PRMT4) and 20000 nM in test [1].
`CC(C)n1ncc2c(C(=O)N3CCN(C)C(=O)C3)cc(-c3cccc(CN(C)CCN)c3)nc21` [Compound 272]: the results for the IC50 (on Human CARM1 (PRMT4); in test [1]) were 84.8 nM and 20000 nM, respectively.
The matching figures for `C=CCn1ncc2c(C(=O)NCC3CCOCC3)cc(-c3cccc(CN(C)CCNC)c3)nc21` [Compound 286]: 148 nM and 7150 nM.
Regarding `CC(C)n1ncc2c(C(=O)N(C)Cc3ccccn3)cc(-c3cccc(CN(C)CCN)c3)nc21` [Compound 282], the values for the half-maximal inhibitory concentration (IC50) (at Human CARM1 (PRMT4); in test [1]) were 130 nM and 8200 nM, respectively.
With `CC(C)n1ncc2c(C(=O)NCc3cnc4ccccn34)cc(-c3cccc(CN(C)CCN)c3)nc21` [Compound 194], the concentration for half-maximal inhibition (IC50) at Human CARM1 (PRMT4) was found to be 13.6 nM; in test [1], 1200 nM.
The matching figures for `CNCCN(C)Cc1cccc(-c2cc(C(=O)NCC3CCOCC3)c3cnn(C)c3n2)c1` [Compound 289]: 163 nM and 16900 nM.
The matching figures for `CNCCN(C)Cc1cccc(-c2cc(C(=O)NCc3cncn3C)c3cnn(C(C)C)c3n2)c1` [Compound 280]: 113 nM and 9490 nM.
In the case of `CC(C)n1cc2c(C(=O)NCC3CCOCC3)cc(-c3cccc(CN(C)CCN)c3)nc2n1` [Compound 297], the IC50 came to 189 nM at Human CARM1 (PRMT4) and 20000 nM in test [1].
The matching figures for `CNCCN(C)Cc1cccc(-c2cc(C(=O)NC3CCOCC3)c3cnn(C(C)C)c3n2)c1` [Compound 233, 1-isopropyl-6-(3-((methyl(2-(methylamino)ethyl)amino)methyl)phenyl)-N-(tetrahydro-2H-pyran-4-yl)-1H-pyrazolo[3,4-b]pyridine-4-carboxamide]: 42.6 nM and 843 nM.
Taken in the same sequence, the figures for `CNCCN(C)Cc1cccc(-c2cc(C(F)(F)F)c3cnn(C(C)C)c3n2)c1` [Compound 293] were 173 nM and 17600 nM.
The matching figures for `COC1CCN(C(=O)c2cc(-c3cccc(CN(C)CCN)c3)nc3c2cnn3C(C)C)C1` (stereo not shown) [Compound 274]: 89.3 nM and 20000 nM.
`CC(C)n1ncc2c(C(=O)N3CCSCC3)cc(-c3cccc(CN(C)CCN)c3)nc21` [Compound 258]: the IC50 amounted to 64.2 nM on Human CARM1 (PRMT4) and 18500 nM in test [1].
In the case of `CNC(=O)c1cc(-c2cccc(CNCCN)c2)nc2c1cnn2C(C)C` [Compound 311], the IC50 came out at 293 nM on Human CARM1 (PRMT4) and 14200 nM in test [1].
For `Cc1c(N(C)CC2CC2)cc(-c2cccc(CN(C)CCN)c2)cc1N1CCOCC1` [Compound 241], the results for the IC50 (at Human CARM1 (PRMT4); in test [1]) were 51 nM and 5690 nM, respectively.
Turning to `CNCCN(C)Cc1cccc(-c2cc(C(=O)NCc3cccnc3)c3cnn(C(C)C)c3n2)c1` [Compound 199], the IC50 was determined as 15.9 nM on Human CARM1 (PRMT4) and 2180 nM in test [1].
Taken in the same sequence, the figures for `CNCCN(C)Cc1cccc(-c2cc(-c3ccc(O)cc3)c3cnn(C(C)C)c3n2)c1` [Compound 247] were 54.7 nM and 20000 nM.
Take `CCn1ncc2c(C(=O)NCC3CCOCC3)cc(-c3cccc(CN(C)CCNC)c3)nc21` [Compound 227]: the results for the IC50 (at Human CARM1 (PRMT4); in test [1]) were 39.9 nM and 4740 nM, respectively.
On to `CC(C)n1ncc2c(-c3ccco3)cc(-c3cccc(CN(C)CCN)c3)nc21` [Compound 198], for which the 50% inhibitory concentration (IC50) on Human CARM1 (PRMT4) stood at 15.1 nM; in test [1], 20000 nM.
Taken in the same sequence, the figures for `CC(C)n1ncc2c(C(=O)NCc3cccc4ccnn34)cc(-c3cccc(CN(C)CCN)c3)nc21` [Compound 197] were 15 nM and 1660 nM.
The matching figures for `CN(CCN)Cc1cccc(-c2cc(C(=O)NCC3CCOCC3)cc(N(C)CC3CC3)c2)c1` [Compound 208]: 20.7 nM and 5540 nM.
Turning to `CC(C)n1ncc2c(C(=O)NC3CC3)cc(-c3cccc(CN(C)CCN)c3)nc21` [Compound 210], the IC50 was 22.4 nM on Human CARM1 (PRMT4) and 2000 nM in test [1].
Take `CNCCN(C)Cc1cccc(-c2cc(C(=O)NCC3CCOCC3)c3cnn(CC(F)(F)F)c3n2)c1` [Compound 277]: the IC50 at Human CARM1 (PRMT4) came to 105 nM; in test [1], 7200 nM.
The matching figures for `CC(C)n1ncc2c(C(=O)NCc3ccn(C)n3)cc(-c3cccc(CN(C)CCN)c3)nc21` [Compound 220]: 32.5 nM and 1240 nM.
Regarding `CC(C)n1ncc2c(C(=O)NCc3cn(C)cn3)cc(-c3cccc(CN(C)CCN)c3)nc21` [Compound 262], the figures for the half-maximal inhibitory concentration (IC50) (at Human CARM1 (PRMT4); in test [1]) were 70.2 nM and 10200 nM, respectively.
Taken in the same sequence, the figures for `CCOC(=O)Nc1cc(-c2cccc(CN(C)CCNC)c2)nc2c1cnn2C(C)C` [Compound 205] were 19.6 nM and 5750 nM.
For the compound `CCN(C)C(=O)c1cc(-c2cccc(CN(C)CCN)c2)nc2c1cnn2C(C)C` [Compound 230], the half-maximal inhibitory concentration (IC50) was 41.4 nM at Human CARM1 (PRMT4) and 7630 nM in test [1].
As for `CC(C)n1ncc2c(C(=O)N(C)Cc3cccnc3)cc(-c3cccc(CN(C)CCN)c3)nc21` [Compound 224], the values for the half-inhibitory concentration (IC50) (at Human CARM1 (PRMT4); in test [1]) were 37.5 nM and 8470 nM, respectively.
Take `CC(C)n1ncc2c(C(=O)NCc3nccs3)cc(-c3cccc(CN(C)CCN)c3)nc21` [Compound 189]: the concentration for half-maximal inhibition (IC50) was determined as 12.4 nM at Human CARM1 (PRMT4) and 1890 nM in test [1].
On to `CNCCN(C)Cc1cccc(-c2cc(C(=O)NCc3cccc4ccnn34)c3cnn(C(C)C)c3n2)c1` [Compound 232], for which the half-maximal inhibitory concentration (IC50) on Human CARM1 (PRMT4) worked out at 42.4 nM; in test [1], 1510 nM.
Consider `CC(C)n1ncc2c(C(=O)N3CCOCC3)cc(-c3cccc(CN(C)CCN)c3)nc21` [Compound 279], for which the IC50 on Human CARM1 (PRMT4) was 113 nM; in test [1], 18700 nM.
The matching figures for `CC(C)n1ncc2c(C(=O)NCc3ccncc3)cc(-c3cccc(CN(C)CCN)c3)nc21` [Compound 172]: 5.67 nM and 3140 nM.
Taken in the same sequence, the figures for `CNCCN(C)Cc1cccc(-c2cc(C(=O)NCc3nccn3C)c3cnn(C(C)C)c3n2)c1` [Compound 212] were 24.9 nM and 1800 nM.
The matching figures for `CNCCN(C)Cc1cccc(-c2cc(NC(=O)OC)c3cnn(C(C)C)c3n2)c1` [Compound 190]: 12.5 nM and 2460 nM.
With `CCN(Cc1cccnc1)C(=O)c1cc(-c2cccc(CN(C)CCN)c2)nc2c1cnn2C(C)C` [Compound 211], the IC50 at Human CARM1 (PRMT4) turned out to be 23.9 nM; in test [1], 3250 nM.

(Values after patent US20170280720A1, “ARGININE […] INHIBITORS AND USES THEREOF” (EPIZYME, INC., priority 2014, published 2017).)
